Results as given in patent publication EP1272220B2, “FORMULATION FOR THE PREVENTION OF CARDIOVASCULAR DISEASE” (Wald, Nicholas John, priority 2000, dated 2001).
Marks after values point to notes of the source that are not given here.

Tests used:
[1] = Expected reduction in risk of ischaemic heart disease and stroke, from analyses of cohort studies and randomised controlled trials; type: in vivo, persons
Description: This combined estimate is based on the fact that the effects on the four different risk factors are unrelated and so the expected effects of changing each one will be independent of each other. This expectation is supported by two classes of evidence. […] For example the ratio of the risk of a disease event in persons with high blood pressure and the risk in persons with low blood pressure is similar, irrespective of the values of serum cholesterol and other risk factors. Second, some randomised clinical trials have used combinations of two of the drugs (for example beta blockers and aspirin) in patients with ischaemic heart disease and have shown that the effects are independent (that is, the relative risk in patients who took two drugs (compared with the risk in those who took none) was similar to the relative risk in persons taking one of the drugs multiplied by the relative risk in persons taking the other drug). Accordingly, the effect of the different drugs in combination in Table 3 has been calculated by multiplying the effects of each as shown in footnotes h and j. Table 3 - The constituent drugs in the proposed combined formulation, the cardiovascular risk factors that each alter, the amount by which each factor would be changed, and the resulting expected reduction in risk of ischaemic heart disease and stroke. [table]

[2] = Analysis of blood pressure reduction according to dose in 187 randomised placebo controlled trials of thiazide diuretics, beta-blockers and ACE inhibitors; type: in vivo, persons; settings: Hydrochlorothiazide 12.5 mg + Atenolol 25 mg + Enalapril 5 mg daily, combined effect, half standard dose
Description: For drugs used to lower blood pressure, the dose of an active principal is below the lower therapeutic dosage for the indication of the active principal. As used herein, the term "therapeutic dosage" is intended to referto the commonly used dose in clinical practice for the treatment of high levels of the risk factor or for the treatment of cardiovascular disease by the separate active principal. The most preferred doses for blood pressure lowering agents are half of the doses at the lower end of the therapeutic range recommended in the British National Formulary of March 2000. This is in order to maximise the therapeutic benefit of the combination of agents, while minimising the risks of adverse effects of the individual agents. […] Most preferably, the dose of a blood pressure lowering agent is about half the recommended dose (or, where a range of doses is given, half of the recommended dose at the lower end of the recommended therapeutic range) for the blood pressure lowering agent.
The corresponding reductions in incidence of ischaemic heart disease and stroke are those to be expected from the blood pressure reductions, from published analyses of cohort studies and randomised controlled trials of blood pressure and ischaemic heart disease and stroke (references 1, 5).

[3] = Prevalence of adverse effects in randomised placebo controlled trials (treated minus control); type: in vivo, persons; settings: preferred daily dose: Hydrochlorothiazide 12.5 mg, Atenolol 25 mg, Enalapril 5 mg, Aspirin 75 mg; for Prevalence of any adverse effect in randomised trials (treated minus control) / Prevalence of serious adverse effects (those that warranted withdrawal from randomised trial) (treated minus control): Atorvastatin 10 mg, Folic acid 0.8 mg
Description: The dose of each medication has been chosen to maximise the ratio of benefit to hazard. It is recognised that some persons taking a combination of six drugs would develop adverse effects that were unacceptable. The adverse effects attributable to each of the component medications would be made clear to persons taking the combined formulation and alternative formulations omitting one or more of the component ingredients, with orwithout a substitute ingredient, would be available for persons unable to tolerate one component. […]

[4] = Folic acid 0.8 mg daily; cited from earlier work
[5] = randomised trials; platelet function not measured; cited from earlier work
[6] = Atorvastatin 10 mg daily; published placebo controlled trials (reference 200); cited from earlier work
[7] = Hydrochlorothiazide 12.5 mg + Atenolol 25 mg + Enalapril 5 mg daily combined, expected from blood pressure reduction of 12 mmHg diastolic
[8] = single drug at preferred daily dose: Atorvastatin 10 mg, Aspirin 75 mg (14 trials of 50-100 mg daily), Folic acid 0.8 mg

SMILES | Expected reduction in risk of: ischaemic heart disease [1, 7] | Expected reduction in risk of: stroke [1, 7] | Associated physiological variable (reduction produced by drug): Blood pressure, diastolic [2] | Commonest adverse effects [3] | Prevalence of any adverse effect in randomised trials (treated minus control) [3] | Prevalence of serious adverse effects (those that warranted withdrawal from randomised trial) (treated minus control) [3] | Expected reduction in risk of: ischaemic heart disease [1, 8] | Associated physiological variable (reduction produced by drug): Plasma/serum homocysteine [4] | Expected reduction in risk of: stroke [1, 8] | incidence of heart attacks and stroke [5] | Associated physiological variable (reduction produced by drug): Serum cholesterol [6]
CCOC(=O)[C@H](CCc1ccccc1)N[C@@H](C)C(=O)N1CCC[C@H]1C(=O)O [Enalapril] | 43%^b | 63%^b | (12 mmHg diastolic)^a | cough | 2.1%^a | 0.2%^a | – | – | – | – | –
CC(C)NCC(O)COc1ccc(CC(N)=O)cc1 (stereo not drawn) [Atenolol] | 43%^b | 63%^b | (12 mmHg diastolic)^a | cold extremities, fatigue, dizziness | 5.6%^a | 0.9%^a | – | – | – | – | –
Nc1nc2ncc(CNc3ccc(C(=O)N[C@@H](CCC(=O)O)C(=O)O)cc3)nc2c(=O)[nH]1 [Folic acid] | – | – | – | – | <0.1% | <0.1% | 15%^g | Plasma/serum homocysteine (3 µmol/I)^f | – | – | –
NS(=O)(=O)c1cc2c(cc1Cl)NCNS2(=O)=O [Hydrochlorothiazide] | 43%^b | 63%^b | (12 mmHg diastolic)^a | dizziness, impotence, nausea | 1.4%^a | 0.1%^a | – | – | – | – | –
CC(=O)Oc1ccccc1C(=O)O [Aspirin] | – | – | – | bleeding, indigestion | 1.8%^b | 0.7%^b (mainly rectal or urinary bleeding) | 38%^e | – | 15%^e | reduces the incidence of heart attacks and stroke in both high risk and low risk persons | –
CC(C)c1c(C(=O)Nc2ccccc2)c(-c2ccccc2)c(-c2ccc(F)cc2)n1CC[C@@H](O)C[C@@H](O)CC(=O)O [Atorvastatin] | – | – | – | – | 0.1% | <0.1% | 61 %^d | – | 50%^d | – | Serum cholesterol (1.8 mmol/I)°
